Assay results from patent US9334264B2, “NAMPT inhibitors” (AbbVie Inc., priority 2012, dated 2016).

Assays:
[1] = target: NAMPT (human, recombinant, C-terminally His-tagged) (Homo sapiens, UniProt P43490); experiment: Time-Resolved Fluorescence Resonance Energy Transfer (TR-FRET) Binding Assay of NAMPT; settings: absence of substrates; 6.8 nM NAMPT, 200 nM probe, equilibrated 3 hours
In short: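 Displacement of 200 nM Oregon Green-labelled nicotinamide-competitive probe from 6.8 nM His-tagged NAMPT, detected with 1 nM Tb-anti-His; HEPES pH 7.5, 2% DMSO, 3 h room temperature. Em520/Em495 ratios normalized and fit four-parameter logistic for IC50.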

NAMPT = NAMPT (Homo sapiens, UniProt P43490); experiment: Time-Resolved Fluorescence Resonance Energy Transfer (TR-FRET) Binding Assay of NAMPT with PRPP; settings: 200 μM PRPP and 2.5 mM ATP; 2 nM NAMPT, 2 nM probe, equilibrated 16 hours
In short: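 Binding was measured by TR-FRET with 2 nM NAMPT, 2 nM probe and 1 nM Tb-anti-His antibody in the presence of 200 μM PRPP and 2.5 mM ATP, with 2% DMSO. Equilibration lasted 16 h before reading, allowing possible enzymatic modification of compounds.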

NAMPT, sequence (P43490 whole entry): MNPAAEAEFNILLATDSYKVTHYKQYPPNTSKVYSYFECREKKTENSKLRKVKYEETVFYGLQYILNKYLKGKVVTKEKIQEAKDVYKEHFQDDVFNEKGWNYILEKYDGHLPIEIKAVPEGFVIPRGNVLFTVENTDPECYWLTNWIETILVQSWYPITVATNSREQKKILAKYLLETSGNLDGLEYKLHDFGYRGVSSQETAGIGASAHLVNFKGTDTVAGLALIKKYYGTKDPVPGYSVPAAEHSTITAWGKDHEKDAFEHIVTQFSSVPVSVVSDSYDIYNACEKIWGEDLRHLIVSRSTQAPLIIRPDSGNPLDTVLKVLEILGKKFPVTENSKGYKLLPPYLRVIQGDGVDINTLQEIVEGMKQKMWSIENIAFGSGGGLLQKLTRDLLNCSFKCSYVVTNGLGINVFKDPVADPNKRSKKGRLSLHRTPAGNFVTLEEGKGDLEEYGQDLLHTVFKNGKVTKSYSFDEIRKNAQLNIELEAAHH
NAMPT (human, recombinant, C-terminally His-tagged), sequence (P43490 whole entry): as above

IC50 [1] [µM] | IC50 (NAMPT) [µM] | SMILES
4.7 | 0.000586 | C=CCN(CC=C)CCN(C(=O)CCOC)c1ncc(C(=O)NCCCn2ccnc2)s1 [Example 189, 2-[{2-[di(prop-2-en-1-yl)amino]ethyl}(3-methoxypropanoyl)amino]-N-[3-(1H-imidazol-1-yl)propyl]-1,3-thiazole-5-carboxamide]
3.21 | 0.000216 | COCCN(C(=O)Cc1ccc(C#N)cc1)c1ncc(C(=O)NCCCn2ccnc2)s1 [Example 187, 2-{[(4-cyanophenyl)acetyl](2-methoxyethyl)amino}-N-[3-(1H-imidazol-1-yl)propyl]-1,3-thiazole-5-carboxamide]
> 10 | 0.000556 | COCCC(=O)N(CC1COCCO1)c1ncc(C(=O)NCCCn2ccnc2)s1 (stereo not drawn) [Example 181, 2-[(1,4-dioxan-2-ylmethyl)(3-methoxypropanoyl)amino]-N-[3-(1H-imidazol-1-yl)propyl]-1,3-thiazole-5-carboxamide]
8.23 | 0.291 | CCOC(=O)CCNC(=O)N(Cc1ccc(C#N)cc1)c1ncc(C(=O)NCCCn2ccnc2)s1 [Example 159, ethyl N-[(4-cyanobenzyl)(5-{[3-(1H-imidazol-1-yl)propyl]carbamoyl}-1,3-thiazol-2-yl)carbamoyl]-beta-alaninate]
1.15 | 0.0006 | COCCC(=O)N(CCOC)c1ncc(C(=O)NCCCn2ccnc2)s1 [Example 175, N-[3-(1H-imidazol-1-yl)propyl]-2-[(2-methoxyethyl)(3-methoxypropanoyl)amino]-1,3-thiazole-5-carboxamide]
6.7 | 0.000245 | COCCNC(=O)N(CCc1ccc(Cl)cn1)c1ncc(C(=O)NCCCn2ccnc2)s1 [Example 209, 2-{[2-(5-chloropyridin-2-yl)ethyl][(2-methoxyethyl)carbamoyl]amino}-N-[3-(1H-imidazol-1-yl)propyl]-1,3-thiazole-5-carboxamide]
> 10 | 0.0136 | O=C(NCCCn1ccnc1)c1cnc(N2CCN(CCO)C2=O)s1 [Example 203, 2-[3-(2-hydroxyethyl)-2-oxoimidazolidin-1-yl]-N-[3-(1H-imidazol-1-yl)propyl]-1,3-thiazole-5-carboxamide]
> 10 | 0.215 | CCOC(=O)CC(C)NC(=O)N(Cc1ccc(C#N)cc1)c1ncc(C(=O)NCCCn2ccnc2)s1 (stereo not drawn) [Example 161, ethyl 3-{[(4-cyanobenzyl)(5-{[3-(1H-imidazol-1-yl)propyl]carbamoyl}-1,3-thiazol-2-yl)carbamoyl]amino}butanoate]
2.59 | 0.000264 | COCCN(C(=O)CCc1ccc(F)cc1)c1ncc(C(=O)NCCCn2ccnc2)s1 [Example 182, 2-{[3-(4-fluorophenyl)propanoyl](2-methoxyethyl)amino}-N-[3-(1H-imidazol-1-yl)propyl]-1,3-thiazole-5-carboxamide]
0.763 | 0.000285 | COCCN(C(=O)Cc1cccnc1)c1ncc(C(=O)NCCCn2ccnc2)s1 [Example 184, N-[3-(1H-imidazol-1-yl)propyl]-2-[(2-methoxyethyl)(pyridin-3-ylacetyl)amino]-1,3-thiazole-5-carboxamide]

Second part, the compound before the results:

SMILES | IC50 [1] [µM] | IC50 (NAMPT) [µM]
CC(C)CCN(Cc1ccccc1Cl)c1ncc(C(=O)NCCCn2ccnc2)s1 [Example 57, 2-[(2-chlorobenzyl)(3-methylbutyl)amino]-N-[3-(1H-imidazol-1-yl)propyl]-1,3-thiazole-5-carboxamide] | > 10 | 1.16
COCCC(=O)N(Cc1ccc(OC)nc1)c1ncc(C(=O)NCCCn2ccnc2)s1 [Example 98, N-[3-(1H-imidazol-1-yl)propyl]-2-{(3-methoxypropanoyl)[(6-methoxypyridin-3-yl)methyl]amino}-1,3-thiazole-5-carboxamide] | 1.5 | 0.00147
COCCC(=O)N(CC(O)c1ccc(OC)cc1)c1ncc(C(=O)NCCCn2ccnc2)s1 (stereo not drawn) [Example 109, 2-{[2-hydroxy-2-(4-methoxyphenyl)ethyl](3-methoxypropanoyl)amino}-N-[3-(1H-imidazol-1-yl)propyl]-1,3-thiazole-5-carboxamide acetate (1:1)] | > 10 | 0.00374
CC(C)CCN(C(=O)Cc1ccc(F)cc1)c1ncc(C(=O)NCCCn2ccnc2)s1 [Example 139, 2-{[(4-fluorophenyl)acetyl](3-methylbutyl)amino}-N-[3-(1H-imidazol-1-yl)propyl]-1,3-thiazole-5-carboxamide] | 0.0561 | 0.000251
CCOCCN1CCN(CC(=O)N(Cc2ccc(F)cc2)c2ncc(C(=O)NCCCn3ccnc3)s2)CC1 [Example 35, 2-[{[4-(2-ethoxyethyl)piperazin-1-yl]acetyl}(4-fluorobenzyl)amino]-N-[3-(1H-imidazol-1-yl)propyl]-1,3-thiazole-5-carboxamide] | > 10 | 0.00318
COCCC(=O)N(Cc1ccc(C#N)cc1)c1ncc(C(=O)NCCCn2ccnc2)s1 [Example 62, 2-[(4-cyanobenzyl)(3-methoxypropanoyl)amino]-N-[3-(1H-imidazol-1-yl)propyl]-1,3-thiazole-5-carboxamide] | 0.81 | 0.00108
COCCC(=O)N(Cc1cccc(C)c1)c1ncc(C(=O)NCCCn2ccnc2)s1 [Example 120, N-[3-(1H-imidazol-1-yl)propyl]-2-[(3-methoxypropanoyl)(3-methylbenzyl)amino]-1,3-thiazole-5-carboxamide] | 3.78 | 0.00229
CC(C)CC(=O)N(CCc1ccc(C#N)cc1)c1ncc(C(=O)NCCCn2ccnc2)s1 [Example 48, 2-{[2-(4-cyanophenyl)ethyl](3-methylbutanoyl)amino}-N-[3-(1H-imidazol-1-yl)propyl]-1,3-thiazole-5-carboxamide] | 0.807 | 0.000701
N#Cc1ccc(CN(C(=O)NCCCN2CC(O)C2)c2ncc(C(=O)NCCCn3ccnc3)s2)cc1 [Example 149, 2-[(4-cyanobenzyl){[3-(3-hydroxyazetidin-1-yl)propyl]carbamoyl}amino]-N-[3-(1H-imidazol-1-yl)propyl]-1,3-thiazole-5-carboxamide] | > 10 | 0.0942
CCCOCCNC(=O)N(Cc1ccc(F)cc1)c1ncc(C(=O)NCCCn2ccnc2)s1 [Example 78, 2-{(4-fluorobenzyl)[(2-propoxyethyl)carbamoyl]amino}-N-[3-(1H-imidazol-1-yl)propyl]-1,3-thiazole-5-carboxamide] | 2.9 | 0.000969
CC(C)CCN(C(=O)CCc1ccccc1)c1ncc(C(=O)NCCCn2ccnc2)s1 [Example 137, N-[3-(1H-imidazol-1-yl)propyl]-2-[(3-methylbutyl)(3-phenylpropanoyl)amino]-1,3-thiazole-5-carboxamide] | 0.0402 | 0.000236
CC(C)CCNC(=O)N(Cc1ccc(F)cc1)c1ncc(C(=O)NCCCn2ccnc2)s1 [Example 63, 2-{(4-fluorobenzyl)[(3-methylbutyl)carbamoyl]amino}-N-[3-(1H-imidazol-1-yl)propyl]-1,3-thiazole-5-carboxamide] | 2.25 | 0.000693
CN(C)C(=O)CCNC(=O)N(Cc1ccc(C#N)cc1)c1ncc(C(=O)NCCCn2ccnc2)s1 [Example 142, 2-[(4-cyanobenzyl){[3-(dimethylamino)-3-oxopropyl]carbamoyl}amino]-N-[3-(1H-imidazol-1-yl)propyl]-1,3-thiazole-5-carboxamide] | 6.04 | 0.0169
O=C(NCCCn1ccnc1)c1cnc(N(Cc2ccc(F)cc2)C(=O)NCC2OCCO2)s1 [Example 86, 2-{[(1,3-dioxolan-2-ylmethyl)carbamoyl](4-fluorobenzyl)amino}-N-[3-(1H-imidazol-1-yl)propyl]-1,3-thiazole-5-carboxamide] | > 10 | 0.00266
CCN(CC)CCNC(=O)N(Cc1ccc(C#N)cc1)c1ncc(C(=O)NCCCn2ccnc2)s1 [Example 146, 2-[(4-cyanobenzyl){[2-(diethylamino)ethyl]carbamoyl}amino]-N-[3-(1H-imidazol-1-yl)propyl]-1,3-thiazole-5-carboxamide] | > 10 | 0.098
CCN(CCOC)C(=O)N(Cc1ccc(F)cc1)c1ncc(C(=O)NCCCn2ccnc2)s1 [Example 71, 2-{[ethyl(2-methoxyethyl)carbamoyl](4-fluorobenzyl)amino}-N-[3-(1H-imidazol-1-yl)propyl]-1,3-thiazole-5-carboxamide] | 0.533 | 0.0007
COCCC(=O)N(Cc1ccc(F)cc1)c1ncc(C(=O)NCCCn2ccnc2)s1 [Example 25, 2-[(4-fluorobenzyl)(3-methoxypropanoyl)amino]-N-[3-(1H-imidazol-1-yl)propyl]-1,3-thiazole-5-carboxamide] | 1.63 | 0.0014
CC1CN(C(=O)N(Cc2ccc(F)cc2)c2ncc(C(=O)NCCCn3ccnc3)s2)CC(C)O1 (stereo not drawn) [Example 70, N-(4-fluorobenzyl)-N-(5-{[3-(1H-imidazol-1-yl)propyl]carbamoyl}-1,3-thiazol-2-yl)-2,6-dimethylmorpholine-4-carboxamide] | > 10 | 0.00508
COCCC(=O)N(CCc1ccc(Cl)cc1)c1ncc(C(=O)NCCCn2ccnc2)s1 [Example 103, 2-{[2-(4-chlorophenyl)ethyl](3-methoxypropanoyl)amino}-N-[3-(1H-imidazol-1-yl)propyl]-1,3-thiazole-5-carboxamide acetate (1:1)] | 0.709 | 0.00306
O=C(NCCCn1ccnc1)c1cnc(N(Cc2ccc(F)cc2)C(=O)CN2CCN(CC3CC3)CC2)s1 [Example 34, 2-[{[4-(cyclopropylmethyl)piperazin-1-yl]acetyl}(4-fluorobenzyl)amino]-N-[3-(1H-imidazol-1-yl)propyl]-1,3-thiazole-5-carboxamide] | 7.57 | 0.000502
